Experimental data reported in ChEMBL document CHEMBL3865840, “Minimizing CYP2C9 Inhibition of Exposed-Pyridine NAMPT (Nicotinamide Phosphoribosyltransferase) Inhibitors” (J Med Chem, 2016).

How the values were obtained:
[1] = Apparent permeability from apical to basolateral side in MDCK cells at 10 uM by LC/MS/MS analysis; assay type: ADME, cell-based, Canis lupus familiaris; settings: dog
Cytochrome P450 2C9 = Cytochrome P450 2C9 (Homo sapiens, UniProt P11712)
[2] = Apparent permeability from basolateral to apical side in MDCK cells at 10 uM by LC/MS/MS analysis; assay type: ADME, cell-based, Canis lupus familiaris; settings: dog
[3] = Octanol-aqueous phosphate buffer distribution coefficient, log D of the compound at pH 7.4 after 1 hr by LC/MS/MS analysis; assay type: physicochemical
Cytochrome P450 3A4 [4] = target: T1, Cytochrome P450 3A4 (Homo sapiens, UniProt P08684); test: Time dependent inhibition of CYP3A4 in human liver microsomes assessed as substrate AUC shift using testosterone as substrate; assay type: ADME; parameters: scale not given: the % may be the effect or the level left
T1 sequence (P08684 whole entry): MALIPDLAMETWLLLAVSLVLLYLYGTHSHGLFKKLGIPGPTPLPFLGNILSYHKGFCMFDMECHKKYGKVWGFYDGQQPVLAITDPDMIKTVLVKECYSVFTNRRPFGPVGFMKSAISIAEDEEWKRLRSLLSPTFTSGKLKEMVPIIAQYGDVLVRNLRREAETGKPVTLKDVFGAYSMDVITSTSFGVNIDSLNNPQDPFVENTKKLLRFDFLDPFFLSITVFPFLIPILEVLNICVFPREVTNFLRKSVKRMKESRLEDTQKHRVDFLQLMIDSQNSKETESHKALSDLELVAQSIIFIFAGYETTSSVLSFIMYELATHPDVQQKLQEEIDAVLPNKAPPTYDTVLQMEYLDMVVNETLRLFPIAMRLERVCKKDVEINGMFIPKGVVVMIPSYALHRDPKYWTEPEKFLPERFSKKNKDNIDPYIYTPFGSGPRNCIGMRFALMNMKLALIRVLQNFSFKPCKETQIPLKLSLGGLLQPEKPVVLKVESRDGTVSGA

Cytochrome P450 3A4 [5] = target: T1, Cytochrome P450 3A4; test: Time dependent inhibition of CYP3A4 in human liver microsomes assessed as substrate AUC shift using midazolam as substrate; assay type: ADME; parameters: scale not given: the % may be the effect or the level left
Cytochrome P450 2D6 = Cytochrome P450 2D6 (Homo sapiens, UniProt P10635)
Sequence of Cytochrome P450 2D6 (P10635 whole entry): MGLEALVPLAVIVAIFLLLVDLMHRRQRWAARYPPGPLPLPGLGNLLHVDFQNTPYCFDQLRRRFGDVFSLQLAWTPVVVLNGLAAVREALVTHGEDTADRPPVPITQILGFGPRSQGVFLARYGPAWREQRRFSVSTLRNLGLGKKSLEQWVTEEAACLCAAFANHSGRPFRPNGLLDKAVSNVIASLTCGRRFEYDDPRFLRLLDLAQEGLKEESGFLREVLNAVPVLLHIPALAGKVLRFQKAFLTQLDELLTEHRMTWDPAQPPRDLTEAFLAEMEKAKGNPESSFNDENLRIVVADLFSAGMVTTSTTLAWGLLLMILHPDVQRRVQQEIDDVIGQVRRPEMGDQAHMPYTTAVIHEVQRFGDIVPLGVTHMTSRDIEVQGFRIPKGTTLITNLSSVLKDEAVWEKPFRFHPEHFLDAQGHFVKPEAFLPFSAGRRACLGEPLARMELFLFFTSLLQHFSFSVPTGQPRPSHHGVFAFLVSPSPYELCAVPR

Cytochrome P450 2C19 = Cytochrome P450 2C19 (Homo sapiens, UniProt P33261)
Sequence of Cytochrome P450 2C19 (P33261 whole entry): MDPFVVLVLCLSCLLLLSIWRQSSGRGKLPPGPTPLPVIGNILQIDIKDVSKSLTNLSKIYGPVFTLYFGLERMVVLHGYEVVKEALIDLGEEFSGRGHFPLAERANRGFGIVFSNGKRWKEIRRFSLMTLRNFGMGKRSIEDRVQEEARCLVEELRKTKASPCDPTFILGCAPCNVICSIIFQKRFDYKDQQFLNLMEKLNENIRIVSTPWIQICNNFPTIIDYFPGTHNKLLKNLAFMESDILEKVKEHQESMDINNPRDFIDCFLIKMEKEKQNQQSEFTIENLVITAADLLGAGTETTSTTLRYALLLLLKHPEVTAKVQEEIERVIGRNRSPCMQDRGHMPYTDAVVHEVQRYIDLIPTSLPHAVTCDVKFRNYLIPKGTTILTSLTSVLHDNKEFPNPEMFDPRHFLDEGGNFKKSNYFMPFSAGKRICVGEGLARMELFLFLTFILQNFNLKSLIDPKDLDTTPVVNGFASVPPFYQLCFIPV

Cytochrome P450 1A2 = target: T2, Cytochrome P450 1A2 (Homo sapiens, UniProt P05177)
T2 sequence (P05177 whole entry): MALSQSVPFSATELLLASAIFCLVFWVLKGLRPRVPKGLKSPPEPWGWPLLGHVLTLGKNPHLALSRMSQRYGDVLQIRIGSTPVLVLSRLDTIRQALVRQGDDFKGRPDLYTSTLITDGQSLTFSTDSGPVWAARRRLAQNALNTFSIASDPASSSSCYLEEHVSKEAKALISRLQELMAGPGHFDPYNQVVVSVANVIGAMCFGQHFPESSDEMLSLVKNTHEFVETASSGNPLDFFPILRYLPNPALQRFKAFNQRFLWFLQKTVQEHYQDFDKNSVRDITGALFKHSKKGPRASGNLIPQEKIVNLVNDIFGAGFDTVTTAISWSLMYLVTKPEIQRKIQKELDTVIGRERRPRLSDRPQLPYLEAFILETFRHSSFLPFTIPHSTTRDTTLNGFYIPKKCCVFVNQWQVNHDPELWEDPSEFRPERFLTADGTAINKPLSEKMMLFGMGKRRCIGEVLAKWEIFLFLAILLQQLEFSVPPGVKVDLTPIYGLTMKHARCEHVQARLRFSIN

Sequence of Cytochrome P450 2C9 (P11712 whole entry): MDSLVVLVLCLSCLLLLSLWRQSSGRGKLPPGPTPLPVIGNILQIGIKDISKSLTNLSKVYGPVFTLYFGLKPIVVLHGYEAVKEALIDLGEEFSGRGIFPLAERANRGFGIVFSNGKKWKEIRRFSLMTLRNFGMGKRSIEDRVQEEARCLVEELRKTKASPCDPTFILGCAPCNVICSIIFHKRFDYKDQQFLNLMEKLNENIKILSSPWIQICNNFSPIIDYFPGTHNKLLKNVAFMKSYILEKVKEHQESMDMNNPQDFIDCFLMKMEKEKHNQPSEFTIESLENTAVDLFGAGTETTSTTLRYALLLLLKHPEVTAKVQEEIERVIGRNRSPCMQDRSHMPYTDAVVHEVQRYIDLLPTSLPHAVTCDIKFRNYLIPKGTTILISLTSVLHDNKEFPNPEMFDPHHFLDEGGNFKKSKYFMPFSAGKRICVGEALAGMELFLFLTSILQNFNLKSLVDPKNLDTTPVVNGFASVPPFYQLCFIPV

Row | Papp A→B at 10 µM [1] | IC50 (Cytochrome P450 2C9) | Papp B→A at 10 µM [2] | SMILES | also measured
1 | 0.2 ×10⁻⁶ cm/s | > 10 µM | 1.9 ×10⁻⁶ cm/s | Cc1nn(C)c(C)c1C(=O)N1CCC2(CC1)CC2CNC(=O)N1Cc2ccncc2C1 (racemic) | –
2 | 0.2 ×10⁻⁶ cm/s | – | 1 ×10⁻⁶ cm/s | CC1(O)CC(CC(=O)N2CCC3(CC2)CC3CNC(=O)N2Cc3ccncc3C2)C1 (racemic) | –
3 | – | 3.4 µM | – | CC(C)(C)OC(=O)N1CCCC(CCNC(=O)c2cc3cnccc3[nH]2)C1 (racemic) | –
4 | 16 ×10⁻⁶ cm/s | > 10 µM | 15 ×10⁻⁶ cm/s | CC(C)(C)OC(=O)N1CCC2(CC1)CC2CNC(=O)c1cc2ccncc2o1 (racemic) | –
5 | 1.4 ×10⁻⁶ cm/s | > 10 µM | 4 ×10⁻⁶ cm/s | CC1(CC(=O)N2CCC3(CC2)CC3CNC(=O)N2Cc3ccncc3C2)COC1 (racemic) | –
6 | – | > 10 µM | – | CC(C)(C)OC(=O)N1CCC2(CCC(CNC(=O)c3cc4cnccc4[nH]3)OC2)CC1 (racemic) | –
7 | – | 7.2 µM | – | CC(C)(C)OC(=O)N1CCC2(CC1)CC2CNC(=O)c1cc2ccncc2s1 (racemic) | –
8 | 3 ×10⁻⁶ cm/s | – | 5.5 ×10⁻⁶ cm/s | Nc1ccc(CNC(=O)Nc2ccc(S(=O)(=O)c3ccccc3)cc2)cn1 | logD at 1 h [3]: 2.7; Activity (Cytochrome P450 3A4 [4]): 45%; Activity (Cytochrome P450 3A4 [5]): 34%
9 | 7.3 ×10⁻⁶ cm/s | > 10 µM | 14 ×10⁻⁶ cm/s | CC(C)CC(=O)N1CCC2(CC1)CC2CNC(=O)N1Cc2ccncc2C1 (racemic) | –
10 | – | 0.4 µM | – | CN(C)C(=O)c1cccc(COc2ccc(CNC(=O)c3cc4cnccc4[nH]3)cc2)c1 | logD at 1 h [3]: 2.5
11 | – | > 10 µM | – | CC(C)(C)NC(=O)N1CCC2(CC1)CC2CNC(=O)N1Cc2ccncc2C1 (racemic) | –
12 | 0.3 ×10⁻⁶ cm/s | – | 2.6 ×10⁻⁶ cm/s | Cc1c(C(=O)N2CCC3(CC2)CC3CNC(=O)N2Cc3ccncc3C2)cnn1C (racemic) | –
13 | – | – | – | O=C(NCc1ccc(S(=O)(=O)c2cc(F)cc(F)c2)cn1)c1cc2ccncc2o1 | logD at 1 h [3]: 2.6
14 | – | > 10 µM | – | O=C(CCC(F)(F)F)N1CCC2(CC1)CC2CNC(=O)N1Cc2ccncc2C1 (racemic) | –
15 | 11 ×10⁻⁶ cm/s | – | 15 ×10⁻⁶ cm/s | CC1(OC(=O)N2CCC3(CC2)C[C@H]3CNC(=O)N2Cc3ccncc3C2)COC1 | –
16 | 13 ×10⁻⁶ cm/s | > 10 µM | 14 ×10⁻⁶ cm/s | CC(C)OC(=O)N1CCC2(CC1)CC2CNC(=O)N1Cc2ccncc2C1 (racemic) | –
17 | 0.3 ×10⁻⁶ cm/s | – | 2.7 ×10⁻⁶ cm/s | Cc1ccncc1C(=O)N1CCC2(CC1)CC2CNC(=O)N1Cc2ccncc2C1 (racemic) | –
18 | 7.9 ×10⁻⁶ cm/s | > 10 µM | 19 ×10⁻⁶ cm/s | O=C(NCC1CC12CCN(C(=O)c1ccccc1)CC2)N1Cc2ccncc2C1 (racemic) | –
19 | – | > 10 µM | – | [2H]C1([2H])c2ccncc2C([2H])([2H])N1C(=O)NCC1CC12CCN(C(=O)OC1(C)COC1)CC2 (racemic) | –
20 | – | 0.2 µM | – | CS(=O)(=O)c1ccc(CNC(=O)c2cc3cnccc3[nH]2)cc1 | logD at 1 h [3]: 0.8
21 | – | > 10 µM | – | O=C(NCc1ccccc1)c1cc2cnccc2[nH]1 | logD at 1 h [3]: 2.2
22 | – | 0.36 µM | – | O=C(NCc1ccc(NS(=O)(=O)C2CCCC2)cc1)c1cc2cnccc2[nH]1 | logD at 1 h [3]: 2.5
23 | 0.2 ×10⁻⁶ cm/s | > 10 µM | 1 ×10⁻⁶ cm/s | CN1CCC(c2ccc(C(=O)N3CCC4(CC3)CC4CNC(=O)N3Cc4ccncc4C3)cc2)CC1 (racemic) | –
24 | 1 ×10⁻⁶ cm/s | > 10 µM | 9.1 ×10⁻⁶ cm/s | CC1(CC(=O)N2CCC3(CC2)CC3CNC(=O)N2Cc3ccncc3C2)CCOCC1 (racemic) | –
25 | – | > 10 µM | – | CC(C)(C)OC(=O)N1CCC(CCNC(=O)c2cc3cnccc3[nH]2)CC1 | –
26 | 15 ×10⁻⁶ cm/s | > 10 µM | 12 ×10⁻⁶ cm/s | CC1(OC(=O)N2CCC3(CC2)CC3CNC(=O)N2Cc3ccncc3C2)CCC1 (racemic) | –

Row | Papp A→B at 10 µM [1] | IC50 (Cytochrome P450 2C9) | Papp B→A at 10 µM [2] | SMILES | also measured
27 | 11 ×10⁻⁶ cm/s | > 10 µM | 16 ×10⁻⁶ cm/s | CC1(OC(=O)N2CCC3(CC2)CC3CNC(=O)N2Cc3ccncc3C2)COC1 (racemic) | –
28 | – | – | – | Cc1ccc(CNC(=O)Nc2ccc(S(=O)(=O)c3ccccc3)cc2)cn1 | logD at 1 h [3]: 2.4
29 | 0.2 ×10⁻⁶ cm/s | – | 1.1 ×10⁻⁶ cm/s | Cc1nn(C)cc1C(=O)N1CCC2(CC1)CC2CNC(=O)N1Cc2ccncc2C1 (racemic) | –
30 | – | > 10 µM | – | Nc1cc2c(cn1)CN(C(=O)NCc1ccc(S(=O)(=O)c3ccccc3)cc1)C2 | –
31 | – | 0.34 µM | – | NS(=O)(=O)c1ccc(CNC(=O)c2cc3cnccc3[nH]2)cc1 | logD at 1 h [3]: 0.6
32 | – | > 10 µM | – | O=C(NCC1CC12CCN(CCc1ccccc1)CC2)N1Cc2ccncc2C1 (racemic) | –
33 | 1.4 ×10⁻⁶ cm/s | – | 9 ×10⁻⁶ cm/s | Cc1nc(C)c(C(=O)N2CCC3(CC2)CC3CNC(=O)N2Cc3ccncc3C2)o1 (racemic) | –
34 | – | 0.45 µM | – | O=C(NCc1ccc(C(=O)N2CCCC2)cc1)c1cc2cnccc2[nH]1 | logD at 1 h [3]: 1.6
35 | – | > 10 µM | – | CCOC(=O)N1CCC2(CC1)CC2CNC(=O)N1Cc2ccncc2C1 (racemic) | –
36 | 9.2 ×10⁻⁶ cm/s | > 10 µM | 13 ×10⁻⁶ cm/s | CC(C)(C)CC(=O)N1CCC2(CC1)CC2CNC(=O)N1Cc2ccncc2C1 (racemic) | –
37 | – | > 10 µM | – | O=C(NCC1CCCCC1)c1cc2cnccc2[nH]1 | logD at 1 h [3]: 3.1
38 | 1.6 ×10⁻⁶ cm/s | > 10 µM | 11 ×10⁻⁶ cm/s | O=C(CCC1CCOCC1)N1CCC2(CC1)CC2CNC(=O)N1Cc2ccncc2C1 (racemic) | –
39 | – | 3.9 µM | – | Nc1cc2cc(C(=O)NCc3ccc(S(=O)(=O)c4ccccc4)cc3)oc2cn1 | –
40 | – | > 10 µM | – | CC(C)(C)OC(=O)N1CCC2(CC1)CC2CNC(=O)c1cnc2nccn2c1 (racemic) | –
41 | – | 3.6 µM | – | O=C(/C=C/c1cccnc1)NCCCCC1CCN(C(=O)c2ccccc2)CC1 [DAPORINAD] | IC50 (Cytochrome P450 2D6): > 10 µM; IC50 (Cytochrome P450 2C19): > 10 µM
42 | 1.4 ×10⁻⁶ cm/s | – | 11 ×10⁻⁶ cm/s | Cc1nc(C)c(C(=O)N2CCC3(CC2)CC3CNC(=O)N2Cc3ccncc3C2)s1 (racemic) | –
43 | 15 ×10⁻⁶ cm/s | > 10 µM | 14 ×10⁻⁶ cm/s | CC(C)(C)OC(=O)N1CCC2(CC1)CC2CNC(=O)c1cc2cnccc2[nH]1 (racemic) | –
44 | 1.4 ×10⁻⁶ cm/s | – | 7 ×10⁻⁶ cm/s | O=C(CC1CCOCC1)N1CCC2(CC1)CC2CNC(=O)N1Cc2ccncc2C1 (racemic) | –
45 | – | – | – | O=C(NCc1ccc(S(=O)(=O)C2CCCCC2)cc1)N1Cc2ccncc2C1 | logD at 1 h [3]: 2
46 | 3.1 ×10⁻⁶ cm/s | – | 11 ×10⁻⁶ cm/s | O=C(NCc1cccnc1)Nc1ccc(S(=O)(=O)c2ccccc2)cc1 | logD at 1 h [3]: 2.7
47 | – | > 10 µM | – | Nc1cc2[nH]c(C(=O)NCc3ccc(S(=O)(=O)c4cc(F)cc(F)c4)cc3)cc2cn1 | Activity (Cytochrome P450 3A4 [4]): 69%; Activity (Cytochrome P450 3A4 [5]): 83%
48 | – | – | 0.43 ×10⁻⁶ cm/s | O=C(NCc1cccnc1)Nc1ccc(S(=O)(=O)N2CCC3(CCNC3)CC2)cc1 | logD at 1 h [3]: < -0.5
49 | 21 ×10⁻⁶ cm/s | – | 9 ×10⁻⁶ cm/s | O=C(NCc1ccc([S@@+]([O-])c2cc(F)cc(F)c2)cn1)c1cc2ccncc2o1 | logD at 1 h [3]: 2
50 | – | – | – | N#CN=C(NCCCCCCOc1ccc(Cl)cc1)Nc1ccncc1 [CHS-828] | IC50 (Cytochrome P450 2C19): 0.63 µM; IC50 (Cytochrome P450 1A2): > 10 µM
51 | – | > 10 µM | – | CC(C)CNC(=O)c1cc2cnccc2[nH]1 | logD at 1 h [3]: 1.7
